# In patent US11938106B2, “Treatment of tinnitus using glutamate receptor agonists” (Northeast Ohio Medical University, priority 2016, dated 2024):
# How the values were obtained:
# [1] = tested on: inferior colliculus (auditory midbrain); test: Local field potentials (sound evoked activity) recorded in the IC of awake mice; type: in vivo, mouse; details: systemic administration, FIG. 13
# Description: FIG. 13 provides graphs showing that a group II mGluR agonist enhances of sound evoked activity in the IC. Local field potentials (LFPs) recorded in the IC of awake mice in response to 30 ms wideband noise (1-100 kHz, 80 dB SPL) recorded before, 30 min and 90 min after drug administration. LFPs shown here were generated based on 130 repetitions. SEMs are shown by grey
# (§1) The animals used were CBA/CaJ male mice, 8 months to 1.5 years old. Extracellular recording was carried out using Quartz micropipettes filled with 1M potassium acetate solution, 10-20 M ohms. Local field potential (LFP) was evaluated using a chronically implanted 4 channel multi-electrode array chronically implanted into IC in a freely moving animal via wireless recording system. For drug administration, the Group II mGluR agonist was administered via intravenous (3.5 mg/kg) or intraperitoneal (5 mg/kg) injections while recording neural activity. To evaluate startle input/output function, startle intensities were randomized within the range from 70 dB to 120 dB SPL. Startle was a broad band noise 20 ms duration. Inter-trial intervals were pseudo randomized between 15 and 25 sec. For gap detection, two trials were carried out. Trial I—The acoustic startle (110 dB SPL, 20 ms duration, wideband noise) imbedded in continuous background noise (65 dB SPL, third octave, centered at 10, 12.5, 16, 20, 25, and 31.5 kHz). […]
# [2] = Gap detection performance for behavioral assessment of tinnitus in the tinnitus mouse model; type: in vivo; details: one mouse, FIG. 17
# Description: Mice were assessed for tinnitus 3 months after exposure. The ability of mice to detect a gap of silence preceding the startle stimulus was determined using commercial hardware/software equipment from Kinder Scientific, Inc. Mice were placed in a small restrainer situated on a plate with a pressure sensor. Any animal motion was detected by the sensor which measured its amplitude and stored data on the computer hard drive. Kinder Scientific software was used to generate a sequence of stimulus trials including a startle stimulus presented alone (STARTLE) and a startle stimulus paired with a gap (GAP+STARTLE) embedded into continuous background noise. The background consisted of narrow-band (1/3 octave) noise centered at six different frequencies (10, 12.5, 16, 20, 25, and 31.5 kHz). […]
# Therefore, the data in each session were statistically analyzed to remove outliers (Grubbs' test for outliers). […] To calculate the GAP+STARTLE/STARTLE ratio we calculated the mean for all STARTLE values. […]
# The presence of tinnitus in each mouse is assessed by pre-pulse inhibition of the acoustic startle reflex using the procedure developed by Turner et al. Turner et al., Behav Neurosci 120:188-195 (2006). […] The inventor measured the ratio of the startle response amplitude when preceded by a gap of silence over the startle response amplitude without preceded gap. […]
# [3] = Acoustic startle reflex (startle input/output function); type: in vivo, mouse; details: in 6 out of 7 mice tested, FIG. 14A, 30 min after drug administration
# Description: (§2) Adult CBA/CaJ mice were used for the study. […] Injection was performed remotely via an intravenous catheter inserted into the tail vein. Spontaneous firing rates of IC neurons were measured and compared before, during, and after of drug injection. To test whether this drug is affecting general sound processing in the auditory system of mice, the acoustic startle reflex and gap detection performance were also assessed.
# as §1, with “out.” for “out. Trial I—The acoustic startle (110 dB SPL, 20 ms duration, wideband noise) imbedded in continuous background noise (65 dB SPL, third octave, centered at 10, 12.5, 16, 20, 25, and 31.5 kHz).”
# [4] = Gap detection performance (gap-induced suppression of acoustic startle) in mice; type: in vivo, mouse; details: 7 mice, FIG. 14B, 30 min after drug administration
# Description: as §2
# as §1, with “out.” for “out. Trial I—The acoustic startle (110 dB SPL, 20 ms duration, wideband noise) imbedded in continuous background noise (65 dB SPL, third octave, centered at 10, 12.5, 16, 20, 25, and 31.5 kHz).”
# [5] = tested on: IC neurons; test: Extracellular recording of neuronal firing in the inferior colliculus of awake mice before, during and after systemic drug injection; type: in vivo, mouse
# Description: as §2
# The animals used were CBA/CaJ male mice, 8 months to 1.5 years old. Extracellular recording was carried out using Quartz micropipettes filled with 1M potassium acetate solution, 10-20 M ohms. Local field potential (LFP) was evaluated using a chronically implanted 4 channel multi-electrode array chronically implanted into IC in a freely moving animal via wireless recording system. For drug administration, the Group II mGluR agonist was administered via intravenous (3.5 mg/kg) or intraperitoneal (5 mg/kg) injections while recording neural activity. To evaluate startle input/output function, startle intensities were randomized within the range from 70 dB to 120 dB SPL. Startle was a broad band noise 20 ms duration. Inter-trial intervals were pseudo randomized between 15 and 25 sec. For gap detection, two trials were carried out. Trial I—The acoustic startle (110 dB SPL, 20 ms duration, wideband noise) imbedded in continuous background noise (65 dB SPL, third octave, centered at 10, 12.5, 16, 20, 25, and 31.5 kHz). Trial II—Trial I paired with a 20 ms gap embedded into background noise and presented 100 ms before the startle. Inter-trial intervals were pseudo randomized between 10 and 17 sec.
compound,measurement,setting,value
"N[C@@]1(C(=O)O)CC[C@H]2[C@H](C(=O)O)[C@H]21 [LY354740, (1S,2S,5R,6S)-2-Aminobicyclo[3.1.0]hexane-2,6-dicarboxylic acid]",effect on sound evoked activity,[1],did not change or slightly increased
same,gap detection performance after systemic injection,[2],improvement of gap detection in this mouse to the control level
same,increase of magnitude of startle responses,[3],at least 20%
same,effect on gap detection performance,[4],not affected
same,duration of suppression of spontaneous activity,[5]; injected IV,several tens of minutes
same,time after injection to suppression of spontaneous activity,[5]; injected IV,Several seconds
same,effect on spontaneous activity in IC neurons,"[5]; injected IV, vast majority of IC neurons, awake mice",near complete suppression
same,time after systemic drug administration at which background firing was suppressed,"[5]; single IC neuron, FIG. 12",About 5 min
same,time until rate of background activity almost recovered to pre-drug level,"[5]; single IC neuron, FIG. 12",about 2 hours
same,effect on sound-evoked firing,"[5]; single IC neuron, FIG. 12, systemic administration",unaffected
same,effect on spontaneous activity in auditory neurons,"[5]; systemic activation of group II mGluRs, FIG. 10, 15",dramatically suppressed
